Results as given in patent US11285156B2, “Substituted piperazines as KRAS G12C inhibitors” (Amgen Inc., priority 2018, dated 2022).
Like-named read-outs stand apart in the source and are kept apart here.

Assays:
[1] = biological target: GDP-bound KRAS protein (aa 1-169), containing both G12C and C118A amino acid substitutions (Homo sapiens (Human), UniProt P01116, C118A/G12C); assay: Coupled nucleotide exchange assay (SOS-mediated nucleotide exchange, AlphaScreen); format: biochemical; conditions: 5 min compound pre-incubation; for IC50: read-out: Coupled exchange IC50 (5 min; μM)
Sequence of GDP-bound KRAS protein (aa 1-169), containing both G12C and C118A amino acid substitutions (P01116 other isoform, or with tags, fused parts or gaps G12C/C118A): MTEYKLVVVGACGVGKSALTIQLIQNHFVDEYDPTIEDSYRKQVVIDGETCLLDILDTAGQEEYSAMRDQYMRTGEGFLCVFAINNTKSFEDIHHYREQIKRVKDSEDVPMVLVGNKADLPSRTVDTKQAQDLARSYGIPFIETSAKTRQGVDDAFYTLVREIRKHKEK

[2] = test system: Phosphorylation of ERK1/2 in MIA PaCa-2 cells; assay: Phospho-ERK1/2 MSD assay in MIA PaCa-2 cells; format: cell-based; conditions: Homo sapiens, MIA PaCa-2, 2 h, read-out: p-ERK IC50 (2 h, MiaPaCa-2; μM)
Procedure, shortened: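 Phospho-ERK1/2 measured by MSD electrochemiluminescence kit in RIPA lysates of MIA PaCa-2 cells. Cells were treated with compound titrations for 2 or 4 h at 37 °C, 5% CO2, followed by a 10 min pulse of 10 ng/mL EGF.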

[3] = test system: Phosphorylation of ERK1/2 in A549 cells; assay: Phospho-ERK1/2 MSD assay in A549 cells; format: cell-based; conditions: Homo sapiens, A549, 2 h, read-out: p-ERK IC50 (2 h, A549; μM)
Procedure, shortened: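 Readout: MSD phospho-ERK1/2 signal after compound (2 or 4 h) and 10 min EGF stimulation at 10 ng/mL.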

[4] = 2 h compound treatment, MIA PaCa-2 cells, EGF stimulated
[5] = 2 h compound treatment, A549 cells, EGF stimulated

Compound	IC50 [1] [µM]	IC50 [2, 4] [µM]	IC50 [3, 5] [µM]	IC50 [2] [µM]	IC50 [3] [µM]	Coupled exchange IC50 (5 min; μM) [1] [µM]
C=CC(=O)N1C[C@H](C)N(c2nc(=O)n(-c3c(C(C)C)nc(S(=O)(=O)CCC)nc3C(C)C)c3nc(-c4ccccc4F)c(Cl)cc23)C[C@H]1C [Example 158, 4-((2S,5R)-4-Acryloyl-2,5-dimethylpiperazin-1-yl)-6-chloro-1-(4,6-diisopropyl-2-(propylsulfonyl)pyrimidin-5-yl)-7-(2-fluorophenyl)pyrido[2,3-d]pyrimidin-2(1H)-one]	0.189	0.191	3.83	–	–	–
C=CC(=O)N1C[C@H](C)N(c2nc(=O)n(-c3c(C(C)C)nc(C=C)nc3C(C)C)c3nc(-c4ccccc4F)c(Cl)cc23)C[C@H]1C [Example 159, 4-((2S,5R)-4-Acryloyl-2,5-dimethylpiperazin-1-yl)-6-chloro-1-(4,6-diisopropyl-2-vinylpyrimidin-5-yl)-7-(2-fluorophenyl)pyrido[2,3-d]pyrimidin-2(1H)-one]	0.046	0.119	3.04	–	–	–
C=CC(=O)N1C[C@H](C)N(c2nc(=O)n(-c3c(C(C)C)nc(CN4CCC4)nc3C(C)C)c3nc(-c4ccccc4F)c(Cl)cc23)C[C@H]1C [Example 161, 1-[2-(Azetidin-1-ylmethyl)-4,6-diisopropyl-pyrimidin-5-yl]-6-chloro-4-[(2S,5R)-2,5-dimethyl-4-prop-2-enoyl-piperazin-1-yl]-7-(2-fluorophenyl)pyrido[2,3-d]pyrimidin-2-one]	0.294	–	–	0.061	> 7.5	–
C=CC(=O)N1C[C@H](C)N(c2nc(=O)n(-c3c(C(C)C)nc(CN4CCOCC4)nc3C(C)C)c3nc(-c4ccccc4F)c(Cl)cc23)C[C@H]1C [Example 162, 6-Chloro-1-[4,6-diisopropyl-2-(morpholinomethyl)pyrimidin-5-yl]-4-[(2S,5R)-2,5-dimethyl-4-prop-2-enoyl-piperazin-1-yl]-7-(2-fluorophenyl)pyrido[2,3-d]pyrimidin-2-one]	0.133	0.078	> 7.5	–	–	–
C=CC(=O)N1C[C@H](C)N(c2nc(=O)n(-c3c(C(C)C)nc(CN4CCCC4)nc3C(C)C)c3nc(-c4ccccc4F)c(Cl)cc23)C[C@H]1C [Example 163, 6-Chloro-1-[4,6-diisopropyl-2-(pyrrolidin-1-ylmethyl)pyrimidin-5-yl]-4-[(2S,5R)-2,5-dimethyl-4-prop-2-enoyl-piperazin-1-yl]-7-(2-fluorophenyl)pyrido[2,3-d]pyrimidin-2-one]	0.127	0.055	> 7.5	–	–	–
C=CC(=O)N1C[C@H](C)N(c2nc(=O)n(-c3c(C(C)C)nc(C)nc3C(C)C)c3nc(-c4ccccc4F)c(Cl)cc23)C[C@H]1C [Example 167, 6-Chloro-1-(4,6-diisopropyl-2-methyl-pyrimidin-5-yl)-4-[(2S,5R)-2,5-dimethyl-4-prop-2-enoyl-piperazin-1-yl]-7-(2-fluorophenyl)pyrido[2,3-d]pyrimidin-2-one]	0.052	0.083	> 7.5	–	–	–
C=CC(=O)N1C[C@H](C)N(c2nc(=O)n(-c3c(C(C)C)nc(C4CC4)nc3C(C)C)c3nc(-c4ccccc4F)c(Cl)cc23)C[C@H]1C [Example 168, 6-Chloro-1-(2-cyclopropyl-4,6-diisopropyl-pyrimidin-5-yl)-4-[(2S,5R)-2,5-dimethyl-4-prop-2-enoyl-piperazin-1-yl]-7-(2-fluorophenyl)pyrido[2,3-d]pyrimidin-2-one]	0.096	0.198	4.34	–	–	–
C=CC(=O)N1C[C@H](C)N(c2nc(=O)n(-c3c(C(C)C)nc(CN4CCN(C)CC4)nc3C(C)C)c3nc(-c4ccccc4F)c(Cl)cc23)C[C@H]1C [Example 170, 6-Chloro-1-[4,6-diisopropyl-2-[(4-methylpiperazin-1-yl)methyl]pyrimidin-5-yl]-4-[(2S,5R)-2,5-dimethyl-4-prop-2-enoyl-piperazin-1-yl]-7-(2-fluorophenyl)pyrido[2,3-d]pyrimidin-2-one]	0.064	0.077	> 7.5	–	–	–
C=CC(=O)N1C[C@H](C)N(c2nc(=O)n(-c3c(C(C)C)ncnc3C(C)C)c3nc(-c4ccccc4C(F)(F)F)c(Cl)cc23)C[C@H]1C [Example 172, 6-Chloro-1-(4,6-diisopropylpyrimidin-5-yl)-4-[(2S,5R)-2,5-dimethyl-4-prop-2-enoyl-piperazin-1-yl]-7-[2-(trifluoromethyl)phenyl]pyrido[2,3-d]pyrimidin-2-one]	0.08	0.099	> 7.5	–	–	–
C=CC(=O)N1C[C@H](C)N(c2nc(=O)n(-c3c(C(C)C)ncnc3C(C)C)c3nc(-c4cc(O)ccc4C)c(Cl)cc23)C[C@H]1C [Example 174, 6-Chloro-1-(4,6-diisopropylpyrimidin-5-yl)-4-[(2S,5R)-2,5-dimethyl-4-prop-2-enoyl-piperazin-1-yl]-7-(5-hydroxy-2-methyl-phenyl)pyrido[2,3-d]pyrimidin-2-one]	–	0.082	> 7.5	–	–	0.069
C=CC(=O)N1CCN(c2nc(CN3CCOCC3)c(-c3ccccc3C(C)C)c3nc(-c4ccccc4F)c(Cl)cc23)CC1 [Example 181, 1-(4-(3-Chloro-2-(2-fluorophenyl)-8-(2-isopropylphenyl)-7-(morpholinomethyl)-1,6-naphthyridin-5-yl)piperazin-1-yl)prop-2-en-1-one]	4.53	10	> 7.5	–	–	–
C=CC(=O)N1C[C@H](C)N(c2nc(=N)n(-c3ccccc3C(C)C)c3nc(-c4ccccc4F)c(Cl)cc23)C[C@H]1C [Example 185, 1-((2R,5S)-4-(6-Chloro-7-(2-fluorophenyl)-2-imino-1-(2-isopropylphenyl)-1,2-dihydropyrido[2,3-d]pyrimidin-4-yl)-2,5-dimethylpiperazin-1-yl)prop-2-en-1-one]	0.055	0.08	> 7.5	–	–	–
C=CC(=O)N1C[C@H](C)N(c2nc(=O)n(-c3ccccc3C(C)C)c3nc(-c4ccccc4F)c(Cl)cc23)C[C@H]1C [Example 186, 4-((2S,5R)-4-Acryloyl-2,5-dimethylpiperazin-1-yl)-6-chloro-7-(2-fluorophenyl)-1-(2-isopropylphenyl)pyrido[2,3-d]pyrimidin-2(1H)-one]	0.093	0.199	> 7.5	–	–	–
C=CC(=O)N1C[C@H](C)N(c2nc(=O)n(-c3c(C(C)C)nc(N(C)C(C)=O)nc3C(C)C)c3nc(-c4ccccc4F)c(Cl)cc23)C[C@H]1C [Example 187, N-[5-[6-Chloro-4-[(2S,5R)-2,5-dimethyl-4-prop-2-enoyl-piperazin-1-yl]-7-(2-fluorophenyl)-2-oxo-pyrido[2,3-d]pyrimidin-1-yl]-4,6-diisopropyl-pyrimidin-2-yl]-N-methyl-acetamide]	–	0.081	0.317	–	–	0.09
C=CC(=O)N1C[C@H](C)N(c2nc(=O)n(-c3c(C(C)C)nc(NC(C)=O)nc3C(C)C)c3nc(-c4ccccc4F)c(Cl)cc23)C[C@H]1C [Example 188, N-[5-[6-Chloro-4-[(2S,5R)-2,5-dimethyl-4-prop-2-enoyl-piperazin-1-yl]-7-(2-fluorophenyl)-2-oxo-pyrido[2,3-d]pyrimidin-1-yl]-4,6-diisopropyl-pyrimidin-2-yl]acetamide]	–	0.04	4.98	–	–	0.038
C=CC(=O)N1C[C@H](C)N(c2nc(=O)n(-c3c(N)ncnc3C(C)C)c3nc(-c4ccccc4F)c(Cl)cc23)C[C@H]1C [Example 189, 4-((2S,5R)-4-Acryloyl-2,5-dimethylpiperazin-1-yl)-1-(4-amino-6-isopropylpyrimidin-5-yl)-6-chloro-7-(2-fluorophenyl)pyrido[2,3-d]pyrimidin-2(1H)-one]	0.158	0.209	> 7.5	–	–	–
C=CC(=O)N1C[C@H](C)N(c2nc(=O)n(-c3c(N)ncnc3C(C)C)c3nc(-c4c(O)cccc4F)c(Cl)cc23)C[C@H]1C [Example 190, 4-((2S,5R)-4-Acryloyl-2,5-dimethylpiperazin-1-yl)-1-(4-amino-6-isopropylpyrimidin-5-yl)-6-chloro-7-(2-fluoro-6-hydroxyphenyl)pyrido[2,3-d]pyrimidin-2(1H)-one]	–	1.71	> 7.5	–	–	0.126
C=CC(=O)N1C[C@H](C)N(c2nc(=O)n(-c3c(N)ncnc3C(C)C)c3nc(-c4c(N)cccc4F)c(Cl)cc23)C[C@H]1C [Example 192, 4-((2S,5R)-4-Acryloyl-2,5-dimethylpiperazin-1-yl)-7-(2-amino-6-fluorophenyl)-1-(4-amino-6-isopropylpyrimidin-5-yl)-6-chloropyrido[2,3-d]pyrimidin-2(1H)-one]	–	0.161	> 7.5	–	–	0.029
C=CC(=O)N1C[C@H](C)N(c2nc(=O)n(-c3c(C)nc(C)nc3C(C)C)c3nc(-c4ccccc4F)c(Cl)cc23)C[C@H]1C [Example 193, 4-((2S,5R)-4-Acryloyl-2,5-dimethylpiperazin-1-yl)-6-chloro-7-(2-fluorophenyl)-1-(4-isopropyl-2,6-dimethylpyrimidin-5-yl)pyrido[2,3-d]pyrimidin-2(1H)-one]	0.056	0.055	> 7.5	–	–	–
